Results: patent publication US20240239775A1, “FXR REGULATOR, PREPARATION METHOD THEREFOR, PHARMACEUTICAL COMPOSITION THEREOF AND USE THEREOF” (QINGDAO RUIJI MEDICAL TECHNOLOGY CO., LTD., priority 2021, published 2024)

These molecules were tested against T1, FXR (Homo sapiens, UniProt Q96RI1) (assay: FXR antagonist screening by TR-FRET (LanthaScreen TR-FRET FXR co-activation assay kit)). Conditions: Table 1.2, FXR antagonistic activity; TR-FRET with CDCA; geometric means of at least two independent runs.
T1 construct: 5 μL of 20 nM FXR-LBD Complete Coregulator buffer G; purchased ThermoFisher PV4833
T1 sequence (Q96RI1 262-486 limits assumed): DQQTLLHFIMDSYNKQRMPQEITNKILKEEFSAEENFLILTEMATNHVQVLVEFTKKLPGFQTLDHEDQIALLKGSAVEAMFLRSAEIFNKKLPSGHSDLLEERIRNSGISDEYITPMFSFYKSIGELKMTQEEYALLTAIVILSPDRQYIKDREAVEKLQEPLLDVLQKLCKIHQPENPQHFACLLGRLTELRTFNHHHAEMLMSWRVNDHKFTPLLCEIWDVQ
Format: biochemical
Summary of the method: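 FXR-LBD (20 nM working solution) mixed with compound, CDCA (200 μM working solution) as agonist, Fluorescein-SRC2-2 and Tb-anti-GST antibody in Coregulator buffer G; 10 h at room temperature. Coactivator recruitment read by TR-FRET, triplicate wells.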

Q: `CCOC(=O)c1oc2ccc(S(=O)(=O)N(CCc3ccccc3)c3ccccc3N3CC4CC(C3)N4C(=O)c3sccc3Br)cc2c1C` [Example M10-151, Ethyl 5-(N-(2-(6-(3-bromothiophene-2-carbonyl)-3,6-diazabicyclo[3.1.1]heptan-3-yl)phenyl)-N-phenethylsulfamoyl)-3-methylbenzofuran-2-carboxylate] was tested. Which IC50 did it give?
A: 50 to 100 µM

Q: Which IC50 does the source give for `CCOC(=O)c1oc2ccc(S(=O)(=O)N(CCc3ccccc3)c3ccccc3N3CCN(C(=O)c4sccc4Br)C[C@@H]3C)cc2c1C` [Example M10-152, (S)-ethyl-5-(N-(2-(4-(3-bromothiophene-2-carbonyl)-2-methylpiperazin-1-yl)phenyl)-N-phenethylsulfamoyl)-3-methylbenzofuran-2-carboxylate] here?
A: 50 to 100 µM

Q: How did the IC50 turn out when `CCOC(=O)c1oc2ccc(S(=O)(=O)N(CCc3ccccc3)c3ccccc3N3CCN(C(=O)c4sccc4Br)C[C@H]3C)cc2c1C` [Example M10-153, (R)-ethyl-5-(N-(2-(4-(3-bromothiophene-2-carbonyl)-2-methylpiperazin-1-yl)phenyl)-N-phenethylsulfamoyl)-3-methylbenzofuran-2-carboxylate] was run?
A: 50 to 100 µM

Q: How did the IC50 turn out when `CCOC(=O)c1oc2ccc(S(=O)(=O)N(CCc3ccccc3)c3ccccc3N3CCCN(C(=O)c4sccc4Br)CC3)cc2c1C` [Example M10-154, Ethyl 5-(N-(2-(4-(3-bromothiophene-2-formyl)-1,4-diazepin-1-yl)phenyl)-N-phenethylsulfamoyl)-3-methylbenzofuran-2-carboxylate] was run?
A: 50 to 100 µM

Q: `CCOC(=O)c1oc2ccc(S(=O)(=O)N(CCc3ccccc3)c3ccccc3N3C4CCC3CN(C(=O)c3sccc3Br)C4)cc2c1C` [Example M10-155, Ethyl 5-(N-(2-(3-(3-bromothiophene-2-formyl)-3,8-diazepine[3.2.1]cyclooctan-8-yl)phenyl)-N-phenethylsulfamoyl)3-methylbenzofuran-2-carboxylate] was tested. Which IC50 did it give?
A: 50 to 100 µM

Q: `CCOC(=O)c1oc2ccc(S(=O)(=O)N(CCc3ccccc3)c3ccccc3N3CCN(C(=O)c4sccc4Br)C(C)C3)cc2c1C` (centres unmarked) [Example M10-156, Ethyl 5-(N-(2-(4-(3-bromothiophene-2-formyl)-3-methylpiperazin-1-yl)phenyl)-N-phenethylsulfamoyl)3-methylbenzofuran-2-carboxylate] was tested. Which IC50 did it give?
A: 50 to 100 µM

Q: Which IC50 does the source give for `CCOC(=O)c1oc2ccc(S(=O)(=O)N(CCc3ccccc3)c3ccccc3N3CC4CC3CN4C(=O)c3sccc3Br)cc2c1C` (centres unmarked) [Example M10-157, Ethyl 5-(N-(2-(5-(3-bromothiophene-2-formyl)-2,5-diazabicyclo[2.2.1]hept-2-yl)phenyl)-N-phenethylsulfamoyl)3-methylbenzofuran-2-carboxylate] here?
A: 50 to 100 µM

Q: For `CCOC(=O)c1sc2ccc(S(=O)(=O)N(CCc3ccccc3)c3ccccc3N3CCN(C(=O)c4sccc4Br)CC3)cc2c1C` [Example M10-158, ethyl 5-(N-(2-(4-(3-bromothiophene-2-carbonyl)piperazin-1-yl)phenyl)-N-phenethylsulfamoyl)-3-toluothiophene-2-carboxylate], which IC50 is on record?
A: 50 to 100 µM

Q: For `CCOC(=O)c1cc2cc(S(=O)(=O)N(CCc3ccccc3)c3ccccc3N3CCN(C(=O)c4sccc4Br)CC3)ccc2s1` [Example M10-159, Ethyl 5-(N-(2-(4-(3-bromothiophene-2-carbonyl)piperazin-1-yl)phenyl)-N-phenethylsulfamoyl)benzo[b]thiophene-2-carboxylate], which IC50 is on record?
A: 50 to 100 µM

Q: How did the IC50 turn out when `CCOC(=O)c1cc2ccc(S(=O)(=O)N(CCc3ccccc3)c3ccccc3N3CCN(C(=O)c4sccc4Br)CC3)cc2s1` [Example M10-160, Ethyl 6-(N-(2-(4-(3-bromothiophene-2-carbonyl)piperazin-1-yl)phenyl)-N-phenethylsulfamoyl)benzo[b]thiophene-2-carboxylate] was run?
A: 50 to 100 µM

Q: `CCOC(=O)c1[nH]c2ccc(S(=O)(=O)N(CCc3ccccc3)c3ccccc3N3CCN(C(=O)c4sccc4Br)CC3)cc2c1Cl` [Example M10-161, Ethyl 5-(N-(2-(4-(3-bromothiophene-2-carbonyl)piperazin-1-yl)phenyl)-N-phenethylsulfamoyl)-3-chloro-1H-indole-2-carboxylate] was tested. Which IC50 did it give?
A: 50 to 100 µM

Q: For `CCOC(=O)c1cc2cc(S(=O)(=O)N(CCc3ccccc3)c3ccccc3N3CCN(C(=O)c4sccc4Br)CC3)ccc2o1` [Example M10-162, Ethyl 5-(N-(2-(4-(3-bromothiophene-2-formyl)piperazin-1-yl)phenyl)-N-phenethylsulfamoyl)benzofuran-2-carboxylate], which IC50 is on record?
A: 50 to 100 µM

Q: Which IC50 does the source give for `CCOC(=O)c1oc2cc(S(=O)(=O)N(CCc3ccccc3)c3ccccc3N3CCN(C(=O)c4sccc4Br)CC3)ccc2c1C` [Example M10-163, Ethyl 6-(N-(2-(4-(3-bromothiophene-2-formyl)piperazin-1-yl)phenyl)-N-phenethylsulfamoyl)-3-methylbenzofuran-2-carboxylate] here?
A: 50 to 100 µM

Q: For `CCOC(=O)c1cc2ccc(S(=O)(=O)N(CCc3ccccc3)c3ccccc3N3CCN(C(=O)c4sccc4Br)CC3)cc2o1` [Example M10-164, Ethyl 6-(N-(2-(4-(3-bromothiophene-2-formyl)piperazin-1-yl)phenyl)-N-phenethylsulfamoyl)benzofuran-2-carboxylate], which IC50 is on record?
A: 50 to 100 µM

Q: `CCOC(=O)c1sc2ccc(S(=O)(=O)N(CCc3ccc(Cl)cc3)c3ccccc3N3CCN(C(=O)c4sccc4Br)CC3)cc2c1C` [Example M10-165, ethyl 5-(N-(2-(4-(3-bromothiophene-2-carbonyl)piperazin-1-yl)phenyl)-N-(4-chlorophenylethyl)sulfamoyl)-3-methylbenzothiophene-2-carboxylate] was tested. Which IC50 did it give?
A: 50 to 100 µM

Q: With `CCOC(=O)c1sc2ccc(S(=O)(=O)N(CCc3ccc(C)cc3)c3ccccc3N3CCN(C(=O)c4sccc4Br)CC3)cc2c1C` [Example M10-166, Ethyl 5-(N-(2-(4-(3-bromothiophene-2-carbonyl)piperazin-1-yl)phenyl)-N-(4-methylphenylethyl)sulfamoyl)-3-methylbenzothiophene-2-carboxylate] as the molecule, how does the IC50 read?
A: 50 to 100 µM

Q: How did the IC50 turn out when `CCOC(=O)c1sc2ccc(S(=O)(=O)N(CCc3ccc(C(=O)OC)cc3)c3ccccc3N3CCN(C(=O)c4sccc4Br)CC3)cc2c1C` [Example M10-167, ethyl 5-(N-(2-(4-(3-bromothiophene-2-carbonyl)piperazin-1-yl)phenyl)-N-(4-(methoxycarbonyl)phenethyl)sulfamoyl)-3-methylbenzothiophene-2-carboxylate] was run?
A: 50 to 100 µM

Q: `CCOC(=O)c1sc2ccc(S(=O)(=O)N(CCc3ccc(C#N)cc3)c3ccccc3N3CCN(C(=O)c4sccc4Br)CC3)cc2c1C` [Example M10-168] was tested. Which IC50 did it give?
A: 50 to 100 µM

Q: Which IC50 does the source give for `CCOC(=O)c1sc2ccc(S(=O)(=O)N(CCc3ccc(C(F)(F)F)cc3)c3ccccc3N3CCN(C(=O)c4sccc4Br)CC3)cc2c1C` [Example M10-169, Ethyl 5-(N-(2-(4-(3-bromothiophene-2-carbonyl)piperazin-1-yl)phenyl)-N-(4-(trifluoromethyl)phenethyl)sulfamoyl)-3-methylbenzothiophene-2-carboxylate] here?
A: 50 to 100 µM

Q: With `CCOC(=O)c1sc2ccc(S(=O)(=O)N(CCc3cccc(OC)c3)c3ccccc3N3CCN(C(=O)c4sccc4Br)CC3)cc2c1C` [Example M10-170, Ethyl 5-(N-(2-(4-(3-bromothiophene-2-carbonyl)piperazin-1-yl)phenyl)-N-(3-methoxyphenethyl)sulfamoyl)-3-methylbenzothiophene-2-carboxylate] as the molecule, how does the IC50 read?
A: 50 to 100 µM
